# Compound: CC1(COc2ccc3c(c2)ncn3-c2ccc3cccc(N4CCC(N)CC4)c3n2)COC1 [Crenolanib] + CC1(C)CCC(c2ccc(Cl)cc2)=C(CN2CCN(c3ccc(C(=O)NS(=O)(=O)c4ccc(N[C@H](CCN5CCOCC5)CSc5ccccc5)c(S(=O)(=O)C(F)(F)F)c4)cc3)CC2)C1 [Navitoclax] (partner 0.5 µM)
# Test: relative viability (nuclei count vs DMSO), 5 days (fraction); higher = more cells survive
# Conditions: first compound 1 µM
# Method in brief: (§1)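 Lung cancer cell lines were pin-tool dosed in 1536-well plates on the day after seeding, with either a lone drug or a fixed anchor-drug dose plus five library-drug doses (not always all listed) in √10 steps. Nuclei were counted on 4× images after 5 days. Relative viability is the ratio of treated-well to vehicle-well nuclei counts, with each value a median of duplicate plates.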
row,Cell Line,relative viability
1,LK-2,0.933
2,NCI-H2126,0.934
3,SK-MES-1,1.2
4,HARA,1.16
5,COR-L23,1.04
6,COR-L 105,0.884
7,LC-2-ad,0.54
8,LU99A,0.964
9,ChaGo-K-1,1
10,NCI-H2170,0.579
11,NCI-H3122,1
12,IA-LM,0.948
13,HCC-78,0.764
14,A549,1.02
15,LXF-289,0.929
16,NCI-H727,0.362
17,NCI-H1299,1.06
18,NCI-H1792,0.642

# Compound: O=C1NC(=O)[C@@H](c2cn3c4c(cccc24)CCC3)[C@@H]1c1c[nH]c2ccccc12 [Tivantinib] + CC1(C)CCC(c2ccc(Cl)cc2)=C(CN2CCN(c3ccc(C(=O)NS(=O)(=O)c4ccc(N[C@H](CCN5CCOCC5)CSc5ccccc5)c(S(=O)(=O)C(F)(F)F)c4)cc3)CC2)C1 [Navitoclax] (partner 0.5 µM)
# Test: as above
# Conditions: first compound 0.01 µM
# Method in brief: as §1
row,Cell Line,relative viability
1,NCI-H838,1.06
2,NCI-H1651,1.02
3,EBC-1,0.505
4,NCI-H1734,0.849
5,NCI-H2009,1.08
6,EPLC-272H,1.12
7,PC-14,1.05
8,LCLC-97TM1,0.423
9,NCI-H596,1.07
10,NCI-H2228,1.15
11,EMC-BAC-2,1.14
12,NCI-H2087,1.14
13,Calu-6,0.866
14,HCC-44,0.971
15,NCI-H1703,1.51
16,NCI-H647,1.06
17,LK-2,0.913

row,Cell Line,relative viability
1,NCI-H2126,0.822
2,SK-MES-1,1.24
3,HARA,1.14
4,COR-L23,1.18
5,COR-L 105,0.856
6,LC-2-ad,0.375
7,LU99A,0.758
8,ChaGo-K-1,1.11
9,NCI-H2170,0.655
10,NCI-H3122,1.02
11,IA-LM,0.973
12,HCC-78,0.853
13,A549,1.28
14,LXF-289,0.987
15,NCI-H727,0.412
16,NCI-H1299,1.01
17,NCI-H1792,0.619

# Same assay, conditions: first compound 0.03162 µM
row,Cell Line,relative viability
1,NCI-H838,1.13
2,NCI-H1651,0.928
3,EBC-1,0.46
4,NCI-H1734,0.86
5,NCI-H2009,1.22
6,EPLC-272H,1.27
7,PC-14,0.926
8,LCLC-97TM1,0.28
9,NCI-H596,1.02
10,NCI-H2228,0.71
11,EMC-BAC-2,1.12
12,NCI-H2087,0.981
13,Calu-6,0.996
14,HCC-44,0.935
15,NCI-H1703,1.29
16,NCI-H647,1.27
17,NCI-H2126,0.821

row,Cell Line,relative viability
1,SK-MES-1,1.17
2,HARA,1.13
3,COR-L23,1.09
4,COR-L 105,0.867
5,LC-2-ad,0.436
6,LU99A,0.789
7,ChaGo-K-1,0.845
8,NCI-H2170,0.555
9,NCI-H3122,0.971
10,IA-LM,0.792
11,HCC-78,0.683
12,A549,1.15
13,LXF-289,0.949
14,NCI-H727,0.432
15,NCI-H1299,0.998
16,NCI-H1792,0.66

# Same assay, conditions: first compound 0.1 µM
row,Cell Line,relative viability
1,NCI-H838,1.06
2,NCI-H1651,1.03
3,EBC-1,0.414
4,NCI-H1734,0.802
5,NCI-H2009,1.2
6,EPLC-272H,1.05
7,PC-14,0.981
8,LCLC-97TM1,0.358
9,NCI-H596,0.948
10,NCI-H2228,0.837
11,EMC-BAC-2,1.18
12,NCI-H2087,0.972
13,Calu-6,0.807
14,HCC-44,1.06
15,NCI-H1703,1.19
16,NCI-H647,1.07
17,LK-2,0.705

row,Cell Line,relative viability
1,NCI-H2126,0.846
2,SK-MES-1,1.1
3,HARA,1.12
4,COR-L23,0.998
5,COR-L 105,0.748
6,LC-2-ad,0.438
7,LU99A,0.767
8,ChaGo-K-1,0.97
9,NCI-H2170,0.534
10,NCI-H3122,0.974
11,IA-LM,0.743
12,HCC-78,0.8
13,A549,1.19
14,LXF-289,0.93
15,NCI-H727,0.311
16,NCI-H1299,1.06
17,NCI-H1792,0.651

# Same assay, conditions: first compound 0.3162 µM
row,Cell Line,relative viability
1,NCI-H838,1.2
2,NCI-H1651,0.938
3,EBC-1,0.293
4,NCI-H1734,0.896
5,NCI-H2009,1.16
6,EPLC-272H,1.01
7,PC-14,0.947
8,LCLC-97TM1,0.398
9,NCI-H596,0.73
10,NCI-H2228,1.01
11,EMC-BAC-2,1.05
12,NCI-H2087,1.03
13,Calu-6,0.716
14,HCC-44,0.872
15,NCI-H1703,0.833
16,NCI-H647,0.758

row,Cell Line,relative viability
1,LK-2,0.83
2,NCI-H2126,0.713
3,SK-MES-1,0.896
4,HARA,1.14
5,COR-L23,1.19
6,COR-L 105,0.626
7,LC-2-ad,0.308
8,LU99A,0.486
9,ChaGo-K-1,1.1
10,NCI-H3122,1.01
11,IA-LM,0.795
12,HCC-78,0.3
13,A549,1.2
14,LXF-289,0.933
15,NCI-H1299,1.05
16,NCI-H1792,0.816

# Reference: the supplement of paper PMC10307832
